According to PubChem BioAssay AID699 (NMMLSC, 2007):
Calls of active or inactive are those of the source. The rule behind the calls is not given here.

Target: fMet-Leu-Phe receptor (Homo sapiens) (UniProt P21462)
Test: FPR antagonists blocking calcium signaling, confirmation, cell-based, calcium response (AID 699)
Conditions: FPR1 cells, ligand-induced calcium response inhibition; hits give high values; concentration not given here

fMet-Leu-Phe receptor (Homo sapiens), sequence (P21462 whole entry, looked up): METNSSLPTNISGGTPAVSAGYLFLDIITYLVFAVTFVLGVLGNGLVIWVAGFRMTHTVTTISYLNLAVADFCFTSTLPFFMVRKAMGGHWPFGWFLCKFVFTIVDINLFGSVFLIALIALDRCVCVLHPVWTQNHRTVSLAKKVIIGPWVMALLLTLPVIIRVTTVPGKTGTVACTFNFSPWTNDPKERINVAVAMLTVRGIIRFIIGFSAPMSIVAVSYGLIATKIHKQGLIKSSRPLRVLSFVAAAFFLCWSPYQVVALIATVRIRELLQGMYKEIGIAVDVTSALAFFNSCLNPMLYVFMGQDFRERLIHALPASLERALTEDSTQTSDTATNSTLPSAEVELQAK

inhibition | Structure (SMILES)
39.8% (inactive) | COCCCN1C(=O)C(O)=C(C(=O)c2ccco2)C1c1ccc(Br)cc1 (centres undefined)
93.8% | COc1ccc(OC)c(C2C(C(=O)c3cccs3)=C(O)C(=O)N2c2cc(C)on2)c1 (centres undefined)
97% | O=C(NC1CCCC1)c1sc(=S)n2c1[nH]c(=O)c1ccccc12
102% | C=CCOc1cccc(C2C(C(=O)c3ccco3)=C(O)C(=O)N2CCN2CCOCC2)c1 (centres undefined)
100% | COc1ccc(Cl)cc1-n1c(=S)sc2c(=O)[nH]c(SCC(=O)NCC3CCCO3)nc21 (centres undefined)
23.6% (inactive) | CCOc1ccc(C2C(C(=O)c3ccco3)=C(O)C(=O)N2CCCn2ccnc2)cc1 (centres undefined)
93.9% | COC(=O)c1[nH]c(C)c(/C(O)=C2\C(=O)C(=O)N(CCN3CCOCC3)C2c2cccs2)c1C (centres undefined)
98.8% | COc1cc(C2C(C(=O)c3ccco3)=C(O)C(=O)N2CCc2ccccc2)ccc1O (centres undefined)
91.7% | CCC(=O)Nc1c(C#N)c2nc3ccccc3nc2n1-c1ccccc1C
38.1% (inactive) | COc1ccc(OC)c(C2/C(=C(/O)c3ccccc3)C(=O)C(=O)N2Cc2ccco2)c1 (centres undefined)
-0% (inactive) | O=C1C(CCS(=O)c2ccccc2)C(=O)N(c2ccccc2)N1c1ccccc1 (centres undefined)
95.1% | COCCN1C(=O)C(O)=C(C(=O)c2cccs2)C1c1ccccc1 (centres undefined)
83.2% (inactive) | COc1ccccc1-c1c(C)oc2cc(OC(=O)c3ccco3)ccc2c1=O
66.4% (inactive) | Cc1c(C(=O)NC2CCCc3ccccc32)oc2ccc(S(=O)(=O)N3CCOCC3)cc12 (centres undefined)
90.5% | CCOc1cccc(/C(O)=C2/C(=O)C(=O)N(CCOC)C2c2ccc(C)o2)c1 (centres undefined)
96.9% | CCCCC1C(=O)N(c2ccccc2)N(c2ccccc2)C1=O
101% | COCCCN1C(=O)C(=O)/C(=C(/O)c2ccccc2)C1c1ccc2c(c1)OCO2 (centres undefined)

inhibition | Structure (SMILES)
15.5% (inactive) | Cc1ccc(C2/C(=C(/O)c3ccc(Cl)cc3)C(=O)C(=O)N2CC2CCCO2)o1 (centres undefined)
99% | COc1ccccc1C1/C(=C(/O)c2ccccc2)C(=O)C(=O)N1CC(C)C (centres undefined)
21.4% (inactive) | CCCOc1ccc(C2C(C(=O)c3ccc(C)o3)=C(O)C(=O)N2CCCn2ccnc2)cc1 (centres undefined)
-0% (inactive) | Cc1ccsc1C1C2=C(CC(C)(C)CC2=O)Nc2ncnn21 (centres undefined)
93.7% | COc1ccccc1Oc1c(C)oc2cc(OC(=O)c3ccco3)ccc2c1=O
56.9% (inactive) | O=C(C1=C(O)C(=O)N(Cc2ccccc2)C1c1ccco1)c1ccco1 (centres undefined)
-0% (inactive) | Cc1[nH]n2c(=O)c3c(nc2c1-c1ccc(Cl)cc1)CCC3
56.7% (inactive) | COCCCN1C(=O)C(O)=C(C(=O)c2ccco2)C1c1ccccc1 (centres undefined)
90.9% | COCCCN1C(=O)C(O)=C(C(=O)c2ccco2)C1c1cccc(Br)c1 (centres undefined)
-0% (inactive) | O=C1C(C23CC4CC(CC(C4)C2)C3)C(=O)N(c2ccccc2)N1c1ccccc1
98.4% | CCCOc1ccc(C2C(C(=O)c3ccco3)=C(O)C(=O)N2CCCn2ccnc2)cc1 (centres undefined)
104% | Cc1[nH]n2c(=O)c(C#N)c(-c3ccccc3)nc2c1-c1ccccc1
-0% (inactive) | CC(C)CN(CC(C)C)C(=O)CS(=O)(=O)Cc1ccccc1
79.1% (inactive) | CC1(C)S[C@@H]2[C@H](NC(=O)Cc3ccccc3)C(=O)N2[C@H]1C(=O)O
-0% (inactive) | O=C(C1=C(O)C(=O)N(Cc2ccccc2)C1c1ccncc1)c1ccco1 (centres undefined)
26.5% (inactive) | COC(=O)c1[nH]c(C)c(/C(O)=C2\C(=O)C(=O)N(CCCN3CCOCC3)C2c2ccccn2)c1C (centres undefined)
-0% (inactive) | C=CCOc1ccc(C2C(C(=O)c3ccco3)=C(O)C(=O)N2Cc2cccnc2)cc1 (centres undefined)
